From article PMC11327220 (Bioscience Reports, 2024)
Values joined by “and” are separate entries in the source; they are usually repeats but may differ in a detail not shown here. Equal entries are not always repeated. Where two headings read alike, the source gives them in different places.

What was measured:
3CLpro = 3CLpro (Severe acute respiratory syndrome coronavirus 2, UniProt P0DTD1); format: binding, SARS-CoV-2
SARS-CoV-2 3CLpro [1] = target: T1, SARS-CoV-2 3CLpro (Severe acute respiratory syndrome coronavirus 2, UniProt P0DTD1); experiment: biochemical; format: biochemical
SARS-CoV-1 3CLpro = SARS-CoV-1 3CLpro (Severe acute respiratory syndrome coronavirus, UniProt P0C6X7); experiment: biochemical
MERS 3CLpro = MERS 3CLpro (Middle East respiratory syndrome-related coronavirus, UniProt K9N7C7); experiment: biochemical
Sequence of MERS 3CLpro (K9N7C7 3248-3553 limits assumed): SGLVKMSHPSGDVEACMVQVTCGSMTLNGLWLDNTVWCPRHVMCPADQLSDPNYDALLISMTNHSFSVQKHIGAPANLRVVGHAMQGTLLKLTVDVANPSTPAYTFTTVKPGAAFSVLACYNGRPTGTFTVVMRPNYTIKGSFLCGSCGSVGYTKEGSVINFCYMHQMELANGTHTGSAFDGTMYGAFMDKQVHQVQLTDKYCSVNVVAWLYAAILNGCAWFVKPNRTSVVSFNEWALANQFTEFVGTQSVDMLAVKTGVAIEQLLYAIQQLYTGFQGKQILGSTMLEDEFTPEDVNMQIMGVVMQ

SARS-CoV-2 3CLpro [2] = target: T1, SARS-CoV-2 3CLpro; experiment: Inhibition kinetics of luteolin (competitive inhibition fit); format: biochemical
[3] = test system: SARS-CoV-2 (ancestral strain A2.2); experiment: microbe, parasite or virus in culture; format: cell-based; conditions: Severe acute respiratory syndrome coronavirus 2, HEK-293T, read-out: IC50 in the live virus assay
[4] = 2.3 mM manganese, 3.5 mM magnesium or 0.3 mM vitamin C, no luteolin
[5] = additive in the absence of luteolin
[6] = one additive: 100 µM luteolin, 3.5 mM magnesium, 2.3 mM manganese, 0.3 mM zinc or 0.3 mM vitamin C, free enzyme 133 ± 4
[7] = read-out: IC50 of micronutrients against 3CLpro
[8] = 0.3 mM vitamin C in the presence of 100 µM luteolin
[9] = versus luteolin without micronutrients

SMILES: [Cl][Mn][Cl] [MnCl2]
- Tm of the first transition (Tm1) of 3CLpro (3CLpro; [4]): 35 ± 0.3 °C
- Tm of the second transition (Tm2) of 3CLpro (3CLpro; [4]): 45 ± 0.5 °C
- fold increase of ΔHcal over free 3CLpro (3CLpro; [5]): 3 fold
- calorimetric enthalpy (ΔHcal) of unfolding of 3CLpro (3CLpro; [6]): 85.1 ± 10.8 kcal/mol
- IC50 (SARS-CoV-2 3CLpro [1]; [7]): 2300 ± 200 µM

SMILES: [Cl-].[Cl-].[Mg+2] [MgCl2]
- Tm of the first transition (Tm1) of 3CLpro (3CLpro): 35 ± 0.3 °C
- Tm of the second transition (Tm2) of 3CLpro (3CLpro): 45 ± 0.5 °C
- fold increase of ΔHcal over free 3CLpro (3CLpro; [5]): 2 fold
- calorimetric enthalpy (ΔHcal) of unfolding of 3CLpro (3CLpro; [6]): 63.1 ± 3.59 kcal/mol
- IC50 (SARS-CoV-2 3CLpro [1]; [7]): 24000 ± 1100 µM

SMILES: O=C1O[C@H]([C@@H](O)CO)C(O)=C1O [Vitamin C, L-ascorbate]
- Tm of the first transition (Tm1) of 3CLpro (3CLpro): 34 °C
- Tm of the second transition (Tm2) of 3CLpro (3CLpro): 45 ± 0.7 °C
- calorimetric enthalpy (ΔHcal) of unfolding of 3CLpro (3CLpro; [8]): 307.8 ± 32.58 kcal/mol
- fold increase of ΔHcal over free 3CLpro (3CLpro; [8]): 10 fold
- Tm of the late transition (Tm3) of 3CLpro (3CLpro; 0.3 mM vitamin C, no luteolin): 56 ± 0.2 °C
- fold increase of ΔHcal over free 3CLpro (3CLpro; [5]): 8 fold
- calorimetric enthalpy (ΔHcal) of unfolding of 3CLpro (3CLpro; [6]): 247.1 ± 13.9 kcal/mol
- IC50 (SARS-CoV-2 3CLpro [1]): 800 ± 20 µM

SMILES: [Cl-].[Cl-].[Zn+2] [ZnCl2]
- decrease of Tm compared with apo-3CLpro (3CLpro): approximately 6 °C
- melting point (Tm) of 3CLpro, single transition (3CLpro): 41 ± 0.4 °C
- fold increase of ΔHcal over free 3CLpro (3CLpro; [5]): 4 fold
- calorimetric enthalpy (ΔHcal) of unfolding of 3CLpro (3CLpro; [6]): 108 ± 12 kcal/mol
- IC50 (SARS-CoV-2 3CLpro [1]; [7]): 1100 ± 200 µM

SMILES: [Ca+2].[Cl-].[Cl-] [CaCl2]
- IC50 (SARS-CoV-2 3CLpro [1]; [7]): 1900 ± 200 µM

SMILES: O=c1c2ccccc2[se]n1-c1ccccc1 [Ebselen, reference compound]
- percentage inhibition of SARS-CoV-2 3CLpro (SARS-CoV-2 3CLpro [1]): completely inhibits

SMILES: O=c1cc(-c2ccc(O)c(O)c2)oc2cc(O)cc(O)c12 [luteolin, 2-(3,4-dihydroxyphenyl)-5,7-dihydroxy-4H-chromen-4-one]
- IC50 (SARS-CoV-1 3CLpro): 711 ± 130 µM
- melting point (Tm) of 3CLpro, single transition (3CLpro; 25 μM 3CLpro with 100 µM luteolin or 0.3 mM zinc, apo-3CLpro 46.7 ± 0.1): 46.7 ± 0.1 °C
- effect of adding luteolin on the thermograms of 3CLpro in the presence of metal ions (3CLpro; 100 µM luteolin with metal ions): minimal effect
- calorimetric enthalpy (ΔHcal) of unfolding of 3CLpro (3CLpro; [6]): 24.1 ± 3.59 kcal/mol
- IC50 (MERS 3CLpro): 388 ± 59 µM
- fold decrease of the IC50 of luteolin with the combination of vitamin C and magnesium (SARS-CoV-2 3CLpro [1]): 3 fold
- fold decrease of the IC50 of luteolin with the combination of zinc and magnesium (SARS-CoV-2 3CLpro [1]): 2 fold
- IC50 (SARS-CoV-2 3CLpro [1]; 2 µM 3CLpro, 60 µM peptide substrate, absence of micronutrients): 78 µM
- inhibition at 25 µM (SARS-CoV-2 3CLpro [1]; read-out: percentage inhibition of SARS-CoV-2 3CLpro): 41%
- fold decrease of the IC50 of luteolin in the presence of magnesium (SARS-CoV-2 3CLpro [1]; [9]): 1.7 fold and 2 fold
- fold decrease of the IC50 of luteolin in the presence of magnesium, zinc, and vitamin C (SARS-CoV-2 3CLpro [1]; [9]): 10 fold
- fold increase of the IC50 of luteolin in the presence of calcium (SARS-CoV-2 3CLpro [1]; [9]): 2 fold
- fold increase of the IC50 of luteolin in the presence of zinc (SARS-CoV-2 3CLpro [1]; [9]): 2 fold
- Ki (SARS-CoV-2 3CLpro [2]): 93 ± 12 µM
- fold increase of Ka over Km of the peptide substrate in the absence of inhibitor (SARS-CoV-2 3CLpro [2]; in the presence of luteolin): ~6 fold
- apparent Michaelis constant (Ka) for the peptide substrate in the presence of luteolin (SARS-CoV-2 3CLpro [2]; luteolin 40-400 µM, Km without inhibitor 66 ± 7 µM): 406 ± 48 µM
- inhibition pattern (SARS-CoV-2 3CLpro [2]; luteolin versus the peptide substrate): competitive inhibition
- IC50 [3]: 90 ± 11 µM
